The text below walks through data of ChEMBL document CHEMBL5356972, “Design and synthesis of cantharidin derivative DCZ5418 as a TRIP13 inhibitor with anti-multiple myeloma activity in vitro and in vivo” (Bioorg Med Chem Lett, 2024).

Active and inactive are the calls of the source. The calls are words filed in the database; no cut-off is given here.

Data set [1] in a line: Inhibition of cell growth in human H929R cells at 10 uM incubated for 48 hrs by CCK-8 assay relative to control. The class given is functional. For orientation: Tetrazolium assays rely on reduction of a dye to a coloured formazan, in cell work by metabolically active cells.
For data set [2], the target named is T1, Pachytene checkpoint protein 2 homolog (Homo sapiens) (UniProt Q15645).
T1 sequence (whole entry): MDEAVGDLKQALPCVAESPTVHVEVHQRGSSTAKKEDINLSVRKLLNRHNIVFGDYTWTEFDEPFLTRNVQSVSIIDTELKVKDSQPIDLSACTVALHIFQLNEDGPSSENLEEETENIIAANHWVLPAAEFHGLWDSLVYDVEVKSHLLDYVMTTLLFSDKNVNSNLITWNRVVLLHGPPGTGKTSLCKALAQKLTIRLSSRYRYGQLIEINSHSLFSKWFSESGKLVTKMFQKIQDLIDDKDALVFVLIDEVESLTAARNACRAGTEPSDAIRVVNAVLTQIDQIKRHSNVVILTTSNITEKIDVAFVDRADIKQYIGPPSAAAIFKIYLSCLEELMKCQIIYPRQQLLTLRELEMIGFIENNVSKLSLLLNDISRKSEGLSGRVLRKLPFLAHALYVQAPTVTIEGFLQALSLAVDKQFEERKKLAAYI
Put plainly: Binding affinity to TRIP13 (unknown origin) by SPR analysis.

The test system of data set [3] is H929R. Put plainly: Inhibition of cell growth in human H929R cells at 10 uM incubated for 48 hrs by CCK-8 assay. The format is functional, cell-based.
A short description of data set [4]: Toxicity in immunodeficient nude mouse xenografted with human H929R cells assessed as reduction in body weight at 15 mg/kg, ip administered once daily for 16 days. The format is organism-based. To be noted: in vivo, 384 h, time 16 day. (In general: A xenograft is tissue or cells of one species grown in another, often human tumour cells in immunodeficient mice.)

The nature of data set [5]: Inhibition of cell growth in human OCI-My5 cells incubated for 48 hrs by CCK-8 assay. As to conditions: OCI-My5, 48 h.
Data set [6] is described as follows: Toxicity in immunodeficient nude mouse xenografted with human H929R cells assessed as reduction in body weight at 25 mg/kg, ip administered once daily for 16 days. To be noted: in vivo, 384 h, time 16 day. The format is organism-based.
Data set [7] can be described thus: Inhibition of cell growth in human H929R cells incubated for 48 hrs by CCK-8 assay.
A short description of data set [8]: Inhibition of cell growth in human ARP-1 cells incubated for 48 hrs by CCK-8 assay. As to conditions: ARP-1, 48 h.
For data set [9], the target named is T2, Pachytene checkpoint protein 2 homolog (Homo sapiens, UniProt Q15645).
T2 sequence (Q15645 whole entry): T1 sequence (whole entry)
The data set can be described thus: Binding affinity to TRIP13 (unknown origin) assessed as dissociation constant by SPR analysis.

Data set [10] concerns H929R. Put plainly: Antitumor activity against human H929R cells xenografted in immunodeficient nude mouse assessed as reduction in tumor growth at 15 mg/kg, ip administered once daily for 16 days by vernier caliper method. The class given is functional, organism-based. As to conditions: time 16.0 day.
Data set [11] in a line: Acute toxicity in mouse assessed as kidney injury at 50 mg/kg, ip. The class given is organism-based. To be noted: in vivo.
A short description of data set [12]: Acute toxicity in mouse assessed as liver injury at 50 mg/kg, ip. The format is organism-based. As to conditions: in vivo.
Data set [13] in a line: Acute toxicity in mouse assessed as reduction in spontaneous activities at 50 mg/kg, ip. The class given is organism-based. To be noted: in vivo.
Data set [14] is described as follows: Acute toxicity in mouse assessed as abnormal behaviors at 50 mg/kg, ip. The format is organism-based. To be noted: in vivo.
A short description of data set [15]: Acute toxicity in mouse assessed as heart injury at 50 mg/kg, ip. The format is organism-based. As to conditions: in vivo.
A short description of data set [16]: Inhibition of cell growth in human CD138-positive cells at 20 uM incubated for 48 hrs by CCK-8 assay relative to control. The format is functional.

With `O=C(NCCCO)C1C2C=CC(O2)C1C(=O)Nc1ccc(Cc2ccncc2)cc1` (stereo unspecified), the inhibition (in general, how much of the control response was suppressed) at 10 µM in data set [1] is 21.2%.
In data set [1], `CN1CCN(C(=O)C2CCCCC2C(=O)Nc2ccc(Cc3ccncc3)cc2)CC1` (stereo unspecified) gave an inhibition at 10 µM of 17.2%.
In data set [1], `O=C1C2C3CCC(C3)C2C(=O)N1c1ccc(Cc2ccncc2)cc1` (stereo unspecified) registered an inhibition at 10 µM of 41.4%. The outcome in data set [2] was inactive.
`CN1CCN(C(=O)C2CCCCC2C(=O)Nc2ccc(Oc3ccncc3)cc2)CC1` (stereo unspecified): in data set [3], the inhibition result is “Active”.
Turning to `C[C@@]12C(=O)N(c3ccc(Cc4ccncc4)cc3)C(=O)[C@]1(C)[C@H]1CC[C@@H]2O1.Cl`, in [4], the Activity entry is recorded as “Non-Toxic”.
In the case of `O=C1C2C3C=CC(C4CC34)C2C(=O)N1c1ccc(Cc2ccncc2)cc1` (stereo unspecified), in data set [1], the inhibition at 10 µM turned out to be 28.2%. The figures for the IC50 in data set [5], in data set [7] and in data set [8] were 5.12 µM, 1.35 µM and 4.13 µM, respectively. In addition, in [6], the Activity entry is on record as “Non-Toxic”.
On to `CN1CCN(C(=O)C2C3C=CC(O3)C2C(=O)Nc2ccc(Cc3ccncc3)cc2)CC1` (stereo unspecified), for which testing at 10 µM in data set [1] gave an inhibition of 29.8%.
Take `O=C1C2C3C=C(Br)C(O3)C2C(=O)N1c1ccc(Oc2ccncc2)cc1` (stereo unspecified): the inhibition entry in data set [3] is “Active”.
Take `CN1CCN(C(=O)C2C3C=C(Br)C(O3)C2C(=O)Nc2ccc(Cc3ccncc3)cc2)CC1` (stereo unspecified): in data set [1], the inhibition at 10 µM came out at 43.1%.
For `O=C1C2C3C=C(Br)C(O3)C2C(=O)N1c1ccc(Cc2ccncc2)cc1` (stereo unspecified), the inhibition at 10 µM in data set [1] is 51.7%. For the same compound, in data set [9], the Kd (in general, the equilibrium constant for the complex coming apart) came to 149 µM.
`O=C(NCCCO)C1CCCCC1C(=O)Nc1ccc(Cc2ccncc2)cc1` (stereo unspecified): the inhibition at 10 µM in data set [1] was 6.9%.
On to `C[C@@]12C(=O)N(c3ccc(Cc4ccncc4)cc3)C(=O)[C@]1(C)[C@H]1CC[C@@H]2O1` [listing 1 of 2 here], for which the result in data set [10] was Active.
As to `C[C@@]12C(=O)OC(=O)[C@]1(C)[C@H]1CC[C@@H]2O1` [CANTHARIDIN], the Activity result in data set [11], in data set [12] and in data set [13] was “Toxic” in each case. The result in [2] was inactive.
In turn, `C[C@@]12C(=O)N(c3ccc(Cc4ccncc4)cc3)C(=O)[C@]1(C)[C@H]1CC[C@@H]2O1` [listing 2 of 2 here] returned an inhibition at 10 µM in data set [1] of 49.3%. Besides, the IC50 (commonly the concentration at which inhibition is half-maximal) in data set [5] stood at 4.32 µM; in [7], 8.47 µM; in [8], 3.18 µM. The Activity result in [11], in data set [14], in data set [12] and in data set [15] was “Non-Toxic” in each case. In data set [16], this compound showed an inhibition at 20 µM of 57%.
